Measured values published in PubChem BioAssay AID2581 (Johns Hopkins Ion Channel Center, 2010).
Active and inactive are the calls of the source.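 How the source made its calls: active means any inhibition of Kir2.1 potassium channel current, measured at -100 mV, at any tested dose; inactive means no inhibition seen at any dose.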

Target: Inward rectifier potassium channel 2 (Mus musculus) (UniProt P35561)
Assay: Kir2.1 inward rectifier current inhibition – cell-based, automated electrophysiology, IonWorks patch clamp, orthogonal assay for Kir2.1 inhibitor project, dose response (AID 2581)
Details: Kir2.1 cell line, IonWorks patch clamp current at -100 mV

Sequence of Inward rectifier potassium channel 2 (Mus musculus) (P35561 whole entry, looked up): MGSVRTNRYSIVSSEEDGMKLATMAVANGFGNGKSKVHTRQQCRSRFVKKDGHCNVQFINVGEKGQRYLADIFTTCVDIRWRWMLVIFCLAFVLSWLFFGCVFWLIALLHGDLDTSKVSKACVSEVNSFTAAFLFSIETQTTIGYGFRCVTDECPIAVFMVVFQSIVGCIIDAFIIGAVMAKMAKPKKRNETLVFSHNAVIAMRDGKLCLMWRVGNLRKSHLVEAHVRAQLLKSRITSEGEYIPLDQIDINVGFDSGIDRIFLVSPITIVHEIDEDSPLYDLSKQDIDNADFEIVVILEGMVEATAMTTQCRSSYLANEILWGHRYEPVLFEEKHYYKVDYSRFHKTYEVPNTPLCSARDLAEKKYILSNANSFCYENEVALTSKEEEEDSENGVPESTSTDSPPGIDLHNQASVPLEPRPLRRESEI

| IC50 [µM] | SMILES |
| --- | --- |
| 11.5 | COc1ccc(CNCc2ccc(Cl)cc2)cc1 |
| 14 | COc1ccc(CNCc2ccc(C(C)(C)C)cc2)cc1 |
| 16.8 | COc1ccc(CNCc2ccccc2C)cc1 |
| 9.76 | COc1ccc(CNCc2ccc3ccccc3c2)cc1 |
| 5.11 | COc1ccc(CNCc2ccc(OC)c(Cl)c2)cc1 |
| 20.6 | COc1ccc(CNCc2ccc(OC)c3ccccc23)cc1 |
| 9.05 | COc1ccc(CNC2CCCc3ccccc32)cc1 (centres undefined) |
| 8.01 | COc1ccc(CNCc2ccc(C)cc2)cc1 |
| 18.1 | COc1ccccc1CNCc1cccc2ccccc12 |
| 13.3 | COc1ccc(CNCc2ccc(OC)cc2)cc1 |
| 24.1 | COc1ccc(CNCc2ccc(OC(F)(F)F)cc2)cc1 |
| 23 | COc1ccc(CNCc2cccc3ccccc23)cc1OC |
| 8.99 | COc1ccc(CNCc2cccc(Cl)c2)cc1 |
| 28.2 | COc1ccc(CNCc2cccc3ccccc23)c(OC)c1 |
| 23.5 | COc1ccc(CNCc2ccc(OC)c3ccccc23)cc1OC |
| 23.6 | COc1cccc(CNCc2cccc3ccccc23)c1 |

Same assay, conditions: Kir2.1 cell line, IonWorks patch clamp current at -100 mV; at 30 µM (top of the series)

| channel activity, lower = inhibition | SMILES |
| --- | --- |
| inactive | COc1ccc(CNCc2ccccn2)cc1 |
| inactive | COc1ccc(C(=O)NCc2cccc3ccccc23)cc1 |
| inactive | Fc1cccc(CNCc2cccc3ccccc23)c1F |
| inactive | COc1cc(CN(C)Cc2cccc3ccccc23)ccc1OCc1ccccc1 |
| inactive | COc1ccc(CNCc2ccncc2)cc1 |
| inactive | Clc1ccc(CNCc2cccc3ccccc23)c(Cl)c1 |
| inactive | COc1cc(CN(C)Cc2cccc3ccccc23)c([N+](=O)[O-])cc1OC |
| inactive | FC(F)(F)Oc1ccc(CNCc2cccc3ccccc23)cc1 |
| inactive | COc1cc(Br)c(CN(C)Cc2cccc3ccccc23)cc1OC |
| inactive | COc1ccc(C(C)NCc2cccc3ccccc23)cc1 (centres undefined) |
| inactive | COc1ccc(CNCc2cccnc2)cc1 |
| inactive | COc1ccc(CNC(C)c2cccc3ccccc23)cc1 (centres undefined) |
| inactive | COc1ccc(CNC(=O)c2cccc3ccccc23)cc1 |
| inactive | COc1ccc(COCc2cccc3ccccc23)cc1 |
| inactive | Clc1ccc(CNCc2cccc3ccccc23)cc1 |
| inactive | Clc1cccc(CNCc2cccc3ccccc23)c1 |
| inactive | CC(C)(C)c1ccc(CNCc2cccc3ccccc23)cc1 |
| inactive | COc1ccc(CNCc2ccccc2)cc1 |
